Laboratory results reported in patent US5208032A, “Increasing the growth of turkeys using implant of 19-nortestosterone” (Rutgers, The State University of New Jersey, priority 1992, dated 1993).

Assays:
[1] = Comparison of effect on growth in castrated male White Leghorn chickens (Study IV, Table II); format: in vivo
Description: The single comb White Leghorn strain (Dekalb XL) of chicken (Avian Services, Frenchtown, N.J.) was used in all studies. Chicks were obtained on the day following hatch and were then maintained in a well ventilated, temperature- and humidity-controlled animal room. Chicks were housed in temperature-controlled (access to small brood chambers--32° to 35° C.), wire-floored, 5-tier brooder batteries (measuring 0.74 W×1.55 L×0.27 H m per tier) until termination of respective studies. A 12 hour light:12 hour dark photoperiod was maintained at all times within the animal room. Feed and water were available ad libitum, with a standard commercial diet (Agway; Bordentown, N.J.), chick starter mash, fed to chicks 1 to 42 days of age, and then from 43 to 84 days, grower mash was provided (manufacturer statement on ration compositions are shown in Table 2).
Excluding Study II, chicks were either castrated (Quigley, 1967) or sham-operated at 13 days of age. Prior to castration, cockerels were deprived of feed and water for 24 hours in order that the intestines may become empty and thus permit better vision into the body cavity and accessibility to testes. Birds were restrained by fastening the wings and legs with leather straps so that sufficient tension was applied to hold the bird well stretched out in a lateral recumbency (on its left side). Next, an approximate 1 inch incision was made midway between the last two ribs and a small rib spreader inserted to hold the ribs about 1/2 inch apart.
Forceps were used to remove both testicles, with the lower or left testicle removed first. The forceps were carefully worked over the testicle and so manipulated as to enclose the entire organ. It was then drawn out with a slight twisting motion. At this step, care was taken not to rupture any of the primary blood vessels. When the rib spreader was removed, and the tension on the bird released (i.e., leg and wing straps removed), the skin and thigh muscles slipped back over the incision thus affording a natural protection. No special care was necessary for surgically manipulated birds other than to puncture "air pockets" which developed under the skin due to air escaping from within the abdominal cavity before the incision between the ribs was healed.
In all studies, chicks were rank-ordered by weight, wing-banded and distributed into treatment groups of equal body weights at 14 days of age. Excluding Study I, e.g., in which male, female and castrate male comparisons were made, all control groups were implanted with 1.0-cm length cholesterol-filled Silastic polysiloxane implants (i.e., steroid surface exposure of 1.0-cm; actual length was 2.0-cm with 1/2 cm wood dowel plugs placed at each end of implant). The remaining treatment groups consisted of chicks (male, female or castrated male) implanted with either testosterone-, 5-alpha-DHT-, 5-beta-DHT-, estradiol-17-beta-, or 19-nortestosterone-filled Silastic polysiloxane implants with steriod surface exposures of either 0.3, 1.0 or 3.0 cm in length. Steroid implants were prepared by manually packing respective crystalline steroids (Steraloids; Wilton, N.H.) into Silastic Medical Grade tubing (1.57 mm i.d.; Dow Corning) (Smith et al., 1977). The amounts of steroid contained in the implants were as follows (mean±SEM of 20 randomly chosen implants, 5 for each steroid): 2.6±0.2 mg (0.3-cm), 8.9±0.4 mg (1.0-cm), and 29.2±0.7 mg 3.0-cm). At the time of group assignment, implants were placed in the subcutaneous (S.C.) layer of skin behind the neck. Supplemental steroid implants (containing doses of steroids equivalent to those of the initial implants) were implanted at 6 and 10 weeks of age, without removal of prior implants, to ensure adequate androgen replacement with increasing growth. Cage floors and fecal collection trays were checked for 2 consecutive days following each implantation session to ensure completeness of procedure. […]

[2] = Growth of castrate male turkeys implanted with 19-nortestosterone (Study III, Table V); format: in vivo, Large White Nicholas turkeys; details: castrated male, 5-cm capsule
Description: The same large white strain of turkey (received 1 day posthatching from Nicholas Breeding Farms, CA) was used in all studies. Poults were reared in deep litter brooder pens from 1 day posthatch and exposed to constant light until initiation of Studies I and III or through completion in the case of Study II. Studies I and III were conducted in an environmentally controlled room (photoperiod 12L:12D) with birds housed individually in wire-floored layer cages (space dimensions of 0.31 W×0.46 L×0.53 H meters per cage). Water and feed (Agway Game and Turkey Starter Crumbles) was available at all times. Turkeys were rank ordered by weight and distributed into treatment groups of equal mean body weights at the start of each Study (I, II and III).
Body weight determinations were made at the second and final week of each study, and several organs and tissues were excised and immediately weighed at the time of necropsy. Final shank-toe length, as an indicator of skeletal growth, was also determined. Birds were sacrificed via exanguination by laceration of the jugular vein. Specific details on the experimental design and conduct of each turkey study will follow.
Male and female turkeys were either sham-operated or castrated (Quigley, 1962) at 4 weeks of age in the same manner as previously described for chickens. However, due to the small size and extremely viscous nature of the turkey testicle at 2 weeks of age, birds were castrated at 4 weeks of age. […] This was important since when a portion of the testicle is left behind or dropped back inside the body cavity after having been torn loose, the bird will become what is called in the poultry industry, a "slip".
Pre- (4 weeks) and post-surgically (1 week), birds were floor-reared together on pine shavings. At 5 weeks of age, birds were transferred to individual layer cages (dimensions as in Study I) in an environmentally controlled animal room. One week later (6 weeks of age), birds were assigned to 4 groups (9 birds/group). Group 1 was composed of intact males (sham-operated); Group 2, intact females (sham-operated); Group 3, castrated males implanted that same day with cholesterol-filled Silastic polysiloxane capsules (5.0-cm); and Group 4, castrated males implanted that same day with 19-nortestosterone-filled Silastic polysiloxane capsules (5.0-cm). Castrated males were rank ordered by weight prior to group assignment. Male and female groups were composed of birds which had the intermediate body weights from a pool of 15 birds for each sex. Birds were randomized (planned) into cages among tiers (5 cages per tier) and racks, similar to that of Study I, in order to eliminate any rack (4) or tier (3 vertical) effects within the room. Birds served as individual treatment units for all parameters measured including feed consumption (i.e., supplied with individual box-type feeders) and were placed into every other cage starting on the top tier in rack 1.

[3] = 0.3-cm implant, given unsigned (decrease vs cholesterol)
[4] = 1.0-cm implant, given unsigned (decrease vs cholesterol)
[5] = 3.0-cm implant, given unsigned (decrease vs cholesterol)
[6] = change vs castrated control, unsigned (increase)
[7] = 0.1-cm implant (so in the source)

SMILES	6-week Body Wt. ([1]; 0.3-cm implant) [g]	12-week Body Wt. ([1]; 0.3-cm implant) [g]	Adipose Abdominal ([1]; 0.3-cm implant) [g]	Final 12-week Shank-toe Length ([1]; 0.3-cm implant) [cm]	Right Breast Muscle ([1]; 0.3-cm implant) [g]	Adipose Abdominal Change [1, 3] [%]	6-week Body Wt. ([1]; 3.0-cm implant) [g]	12-week Body Wt. ([1]; 3.0-cm implant) [g]	Adipose Abdominal ([1]; 3.0-cm implant) [g]	Final 12-week Shank-toe Length ([1]; 3.0-cm implant) [cm]	Right Breast Muscle ([1]; 3.0-cm implant) [g]	12-week Body Wt. Change [1, 5] [%]	Adipose Abdominal Change [1, 5] [%]	Final 12-week Shank-toe Length Change [1, 5] [%]	Right Breast Muscle Change [1, 5] [%]	other results
C[C@]12CCC(=O)C[C@@H]1CC[C@@H]1[C@@H]2CC[C@]2(C)[C@@H](O)CC[C@@H]12 [5-alpha-DHT, 5-alpha-dihydrotestosterone]	515 ± 10	1191 ± 26	10 ± 2	16.4 ± 0.10	57 ± 2	58.3	415 ± 15	872 ± 53	0.5 ± 0.2	13.7 ± 0.34	36 ± 3	31	97.9	19.4	43.8	12-week Body Wt. Change [1, 3]: 6.9%; Final 12-week Shank-toe Length Change [1, 3]: 3.5%; Right Breast Muscle Change [1, 3]: 10.9%; 6-week Body Wt. ([1]; 1.0-cm implant): 485 ± 12 g; 12-week Body Wt. ([1]; 1.0-cm implant): 1140 ± 39 g; Adipose Abdominal ([1]; 1.0-cm implant): 6 ± 1 g; Final 12-week Shank-toe Length ([1]; 1.0-cm implant): 16.1 ± 0.24 cm; Right Breast Muscle ([1]; 1.0-cm implant): 51 ± 3 g; 12-week Body Wt. Change [1, 4]: 10.9%; Adipose Abdominal Change [1, 4]: 75.0%; Final 12-week Shank-toe Length Change [1, 4]: 5.3%; Right Breast Muscle Change [1, 4]: 15.6%; 6-week Body Wt. Change [1, 5]: 19.1%
C[C@]12CC[C@H]3[C@@H](CCC4=CC(=O)CC[C@@H]43)[C@@H]1CC[C@@H]2O [19-Nortestosterone, 19-nortestosterone]																Abdominal Adipose [2]: 4.92 ± 0.91; Average Daily Gain [2]: 106 ± 3 g; Feed/Gain Ratio [2]: 1.86 ± 0.05; Final 9-Week Body Weight [2]: 3643 ± 64 g; Final 9-Week Shank-Toe Length [2]: 21.44 ± 0.18 cm; Right Breast Muscle [2]: 303 ± 13 g; Abdominal Adipose (%) ([2]; change vs castrated control, unsigned (decrease)): 65.6%; Average Daily Gain (%) [2, 6]: 16.5%; Final 9-Week Body Weight (%) [2, 6]: 5.9%; Right Breast Muscle (%) [2, 6]: 14.8%; Feed Efficiency ([2]; change vs castrated control, column head prints (g), cells %): 16.6%
C[C@]12CC[C@H]3[C@@H](CCC4=CC(=O)CC[C@@]43C)[C@@H]1CC[C@@H]2O [Testosterone, testosterone]	501 ± 13	1262 ± 35	16 ± 2	17.0 ± 0.16	61 ± 2	33.3	505 ± 13	1207 ± 25	10 ± 3	16.4 ± 0.16	55 ± 2	5.6	58.3	3.5	14.1	6-week Body Wt. [1, 7]: 503 ± 10 g; 12-week Body Wt. [1, 7]: 1287 ± 25 g; Adipose Abdominal [1, 7]: 15 ± 3 g; Final 12-week Shank-toe Length [1, 7]: 16.9 ± 0.14 cm; Right Breast Muscle [1, 7]: 61 ± 2 g; Adipose Abdominal Change ([1]; 0.1-cm implant (so in the source), given unsigned (decrease vs cholesterol)): 37.5%
